Test results published in patent EP2686338B1, “FUNCTIONALIZED BIOMATERIALS FOR TISSUE REGENERATION” (Nanomed3d S.r.l., priority 2011, dated 2018).
Entries after “also recorded” stand apart in the source; their conditions may differ. Residues, ends and D or L forms follow the SMILES beside them.

Assays:
[1] = Rheology (frequency, time and strain sweeps); type: physicochemical; settings: for G' pre-assembling: average storage modulus of SAPeptide solution, before PBS; for G' pre-assembling / G' post-assembling: 1-100 Hz; for G' post-assembling: average storage modulus of jellified scaffold, after PBS; for Onset point (% strain): strain percentage at rupture, strain sweep at 1 Hz, 25 C
Procedure: Rheological properties of the self-assembling peptides of the invention were determined using a controlled stress TA Instruments AR-2000ex rheometer (TA Instruments). A cone-and-plate geometry (acrylic cone diameter, 20 mm; angle, 1°; truncation gap 34 µm) was used. Preliminary strain sweeps were performed for each sample to define the linear viscoelastic region, thus ensuring that moduli were independent of strain. Time sweeps, after addition of PBS (1x) were recorded at 25 C (angular frequency ω=1 Hz) and continued till G' plateaued. Frequency sweeps, both for peptide water solutions and for self-assembled scaffolds, were performed at 25 C with the instrument in oscillatory mode at controlled strain of 1 %. Final strain sweeps was performed at 1Hz oscillatory frequency and at 25 C: onset point of failure was calculated by linear interpolation and subsequent determination of the intersection of the G' modes within the linear region and at material failure respectively.

murine NSCs [2] = assay: Imaging and cell proliferation (MTS) assay on assembled scaffolds, murine NSCs; type: cell-based; settings: for cell viability (MTS, cell population): 7 DIV, scaffolds 10 mg/ml, vs control, P<0.005, n=5; for cell morphology, adhesion and spreading: 7 DIV on assembled hydrogels
Procedure: (§1) In vitro tests were performed as previously described (8), in order to assess whether the biomaterials (assembled hydrogels) obtained with the SAPs of the present invention influenced NSCs adhesion, survival and/or differentiation. SAPeptides (30 µl for each well at a concentration of 10 mg/ml) were assembled into 96 multiwells two hours before cell. Cells (at a concentration of 2x10^4 cells/cm^2) were seeded on the top-surface of each assembled scaffold. Initially, cells were cultured with basal medium supplemented with βFGF (10 ng/ml), added to enhance neuronal progeny differentiation. At 3 days in vitro (DIV), βFGF medium was replaced with Leukemia Inhibitory Factor (LIF, Chemicon) (20 ng/ml) and Brain Derived Neurotrophic Factor (BDNF, Peprotech) (20 ng/ml). Fresh medium was added every three days. For both viability and differentiation assays positive and negative controls consisted of Cultrex-BME® substrate (R&D systems) (1:100 dilution in basal medium) and untreated bottom well surfaces respectively. Cell viability was quantified via CellTiter 96® Aqueous Proliferation Assay (Promega) at 7 DIV as recommended in the Promega protocol. After calibrating the linear response between the cell number and absorbance values, proliferated cell populations were quantified (n=5) by using a Vmax microplate reader (Molecular Devices) at 490nm wavelength. Values, reported as means ± standard error of the mean, were blanked to their respective controls consisting of same substrates and cell culture media without cells.

human NSCs [3] = assay: Imaging and cell proliferation (MTS) assay on assembled scaffolds, human NSCs; type: cell-based; settings: for cell viability (MTS, cell population): 7 DIV, scaffolds 10 mg/ml, vs control, P<0.03, n=5
Procedure: as §1

murine NSCs [4] = assay: Immunofluorescence of differentiated NSC progeny on scaffolds, murine NSCs; type: cell-based; settings: for percentages of neurons (βIIITubulin positive cells): scaffolds of stiffness 100, 500 and 1000 Pa, best values, softer scaffolds; for differentiated neurons (βIIITubulin positive cells) versus scaffold stiffness: stiffness 100, 500 and 1000 Pa, P<0.05, P<0.01
Procedure: as §1
(§2) Immunofluorescence tests were performed for assaying the phenotypes of the differentiated human and murine NSC progenies. In the case of KLP and Ac-KLP just murine NSC have been used. Ac-KLP and KLP scaffolds were prepared at different concentrations in order to display three different stiffness values (viz. 100, 500 and 1000 Pa). This was done to assess the influence of scaffold concentration (and consequently its stiffness) over NSC differentiation. All the other peptides were tested at 1% v/w concentration instead. The following antibodies were used: rabbit polyclonal against GFAP (1:500, DakoCytomation) for astrocytes, mouse monoclonal against βIII-Tubulin (1:500, Covance) for neurons, mouse monoclonal against GalC (1:200, Chemicon) and O4 (1:200, Chemicon) for oligodendrocyes. Secondary Abs were Goat anti Mouse Alexa 488 (1:1000, Molecular Probes), Goat anti Mouse Cy3 (1:1000, Jackson Immunoresearch), Goat anti Rabbit Cy3 (1:1000, Jackson Immunoresearch). Cell nuclei were counterstained with DAPI (Molecular Probes). Quantitative analyses were performed by counting 100-300 cells for each of 9 randomly chosen fields over a total of 3 independent experiments. Phase contrast and fluorescence images of the adhering cells were acquired via Zeiss microscopes Axioplan 2 and ApoTome System at one week after seeding.

human NSCs [5] = assay: Immunofluorescence of differentiated NSC progeny on scaffolds, human NSCs; type: cell-based; settings: 1% scaffold; compared to Cultrex positive control
Procedure: as §1
as §2, with “Cell nuclei were counterstained with DAPI (Molecular Probes).” left out

[6] = 1% scaffold, compared to Cultrex positive control

| G' pre-assembling ([1]; 1% w/v) [Pa] | G' post-assembling ([1]; 1% w/v) [Pa] | Onset point (% strain) [1] [%] | G' and G" values at different concentrations ([1]; 1% w/v, 2% w/v and 3% w/v) | SMILES | cell viability (MTS, cell population) (murine NSCs [2]) | cell viability (MTS, cell population) (human NSCs [3]) | cell morphology, adhesion and spreading (murine NSCs [2]) | percentages of neurons (βIIITubulin positive cells) (murine NSCs [4]) | differentiated neurons (βIIITubulin positive cells) versus scaffold stiffness (murine NSCs [4]) | number of neurons (human NSCs [5]) | number of oligodendrocytes (human NSCs [5]) | cell morphology, adhesion and spreading (human NSCs [3]; 7 DIV on assembled hydrogels) | number of neurons (murine NSCs [4]; [6]) | number of oligodendrocytes (murine NSCs [4]; [6]) |
| --- | --- | --- | --- | --- | --- | --- | --- | --- | --- | --- | --- | --- | --- | --- |
| 2.68 | 166.7 | 10.16 |  | CC(=O)N[C@@H](CCC(N)=O)C(=O)N[C@@H](Cc1c[nH]cn1)C(=O)N[C@@H](CC(C)C)C(=O)N1CCC[C@H]1C(=O)N[C@@H](CCCNC(=N)N)C(=O)N[C@@H](CC(=O)O)C(=O)N[C@@H](Cc1c[nH]cn1)C(=O)NCC(=O)NCC(=O)NCC(=O)N[C@@H](CC(C)C)C(=O)N[C@@H](CC(=O)O)C(=O)N[C@@H](CC(C)C)C(=O)N[C@@H](CCCCN)C(=O)N[C@@H](CC(C)C)C(=O)N[C@@H](CC(=O)O)C(=O)N[C@@H](CC(C)C)C(=O)N[C@@H](CCCCN)C(=O)N[C@@H](CC(C)C)C(=O)N[C@@H](CC(=O)O)C(=O)N[C@@H](CC(C)C)C(=O)N[C@@H](CCCCN)C(N)=O [Ac-QHL, Ac-QHLPRDH-GGG-LDLKLDLKLDLK-CONH2] (Ac-QHLPRDHGGGLDLKLDLKLDLK-NH2) |  |  |  |  |  |  |  |  |  |  |
| 9.01 | 124.7 | 17.78 |  | CC(C)C[C@H](NC(=O)CNC(=O)CNC(=O)CNC(=O)[C@H](CC(=O)O)NC(=O)[C@H](CC(N)=O)NC(=O)[C@@H](NC(=O)[C@H](CO)NC(=O)[C@H](CC(C)C)NC(=O)[C@H](CO)NC(=O)[C@@H](N)CO)C(C)C)C(=O)N[C@@H](CC(=O)O)C(=O)N[C@@H](CC(C)C)C(=O)N[C@@H](CCCCN)C(=O)N[C@@H](CC(C)C)C(=O)N[C@@H](CC(=O)O)C(=O)N[C@@H](CC(C)C)C(=O)N[C@@H](CCCCN)C(=O)N[C@@H](CC(C)C)C(=O)N[C@@H](CC(=O)O)C(=O)N[C@@H](CC(C)C)C(=O)N[C@@H](CCCCN)C(N)=O [SSL, NH2-SSLSVND-GGG-LDLKLDLKLDLK-CONH2] (H-SSLSVNDGGGLDLKLDLKLDLK-NH2) |  |  |  |  |  |  |  |  |  |  |
| 4.53 | 296.9 | 28.58 |  | CC(C)C[C@H](NC(=O)CNC(=O)CNC(=O)CNC(=O)[C@H](Cc1c[nH]cn1)NC(=O)[C@H](CC(=O)O)NC(=O)[C@H](CCCNC(=N)N)NC(=O)[C@@H]1CCCN1C(=O)[C@H](CC(C)C)NC(=O)[C@H](Cc1c[nH]cn1)NC(=O)[C@@H](N)CCC(N)=O)C(=O)N[C@@H](CC(=O)O)C(=O)N[C@@H](CC(C)C)C(=O)N[C@@H](CCCCN)C(=O)N[C@@H](CC(C)C)C(=O)N[C@@H](CC(=O)O)C(=O)N[C@@H](CC(C)C)C(=O)N[C@@H](CCCCN)C(=O)N[C@@H](CC(C)C)C(=O)N[C@@H](CC(=O)O)C(=O)N[C@@H](CC(C)C)C(=O)N[C@@H](CCCCN)C(N)=O [QHL, NH2-QHLPRDH-GGG-LDLKLDLKLDLK-CONH2] (H-QHLPRDHGGGLDLKLDLKLDLK-NH2) | significantly fostered cell viability; also recorded: significantly favored | significantly fostered cell viability; also recorded: significantly favored |  |  |  |  |  |  |  |  |
| 3.30 | 51.38 | 56.46 |  | CC(C)C[C@H](NC(=O)CNC(=O)CNC(=O)CNC(=O)CNC(=O)[C@H](CO)NC(=O)[C@H](Cc1c[nH]c2ccccc12)NC(=O)CNC(=O)[C@@H]1CCCN1C(=O)[C@H](CC(C)C)NC(=O)[C@@H](N)CCCCN)C(=O)N[C@@H](CC(=O)O)C(=O)N[C@@H](CC(C)C)C(=O)N[C@@H](CCCCN)C(=O)N[C@@H](CC(C)C)C(=O)N[C@@H](CC(=O)O)C(=O)N[C@@H](CC(C)C)C(=O)N[C@@H](CCCCN)C(=O)N[C@@H](CC(C)C)C(=O)N[C@@H](CC(=O)O)C(=O)N[C@@H](CC(C)C)C(=O)N[C@@H](CCCCN)C(N)=O [KLP, NH2-KLPGWSG-GGG-LDLKLDLKLDLK-CONH2] (H-KLPGWSGGGGLDLKLDLKLDLK-NH2) |  |  | fostered NSCs adhesion and spreading similarly to FAQ | above 50% | significant increments of differentiated neurons |  |  |  |  |  |
| 6.66 | 142.7 | 25.43 |  | CC(C)C[C@H](NC(=O)CNC(=O)CNC(=O)CNC(=O)[C@@H]1CCCN1C(=O)[C@@H]1CCCN1C(=O)[C@@H](NC(=O)[C@H](CCCNC(=N)N)NC(=O)[C@H](CCC(N)=O)NC(=O)[C@H](C)NC(=O)[C@@H](N)Cc1ccccc1)C(C)C)C(=O)N[C@@H](CC(=O)O)C(=O)N[C@@H](CC(C)C)C(=O)N[C@@H](CCCCN)C(=O)N[C@@H](CC(C)C)C(=O)N[C@@H](CC(=O)O)C(=O)N[C@@H](CC(C)C)C(=O)N[C@@H](CCCCN)C(=O)N[C@@H](CC(C)C)C(=O)N[C@@H](CC(=O)O)C(=O)N[C@@H](CC(C)C)C(=O)N[C@@H](CCCCN)C(N)=O [FAQ, NH2-FAQRVPP-GGG-LDLKLDLKLDLK-CONH2] (H-FAQRVPPGGGLDLKLDLKLDLK-NH2) | significantly fostered cell viability; also recorded: cell population was bigger | significantly fostered cell viability; also recorded: cell population was bigger | spread and branched cells |  |  | significantly higher | significantly higher | spread and branched cells | significantly higher | significantly higher |
| 6.72 | 267.3 | 26.12 |  | CC(=O)N[C@@H](CO)C(=O)N[C@@H](CO)C(=O)N[C@@H](CC(C)C)C(=O)N[C@@H](CO)C(=O)N[C@H](C(=O)N[C@@H](CC(N)=O)C(=O)N[C@@H](CC(=O)O)C(=O)NCC(=O)NCC(=O)NCC(=O)N[C@@H](CC(C)C)C(=O)N[C@@H](CC(=O)O)C(=O)N[C@@H](CC(C)C)C(=O)N[C@@H](CCCCN)C(=O)N[C@@H](CC(C)C)C(=O)N[C@@H](CC(=O)O)C(=O)N[C@@H](CC(C)C)C(=O)N[C@@H](CCCCN)C(=O)N[C@@H](CC(C)C)C(=O)N[C@@H](CC(=O)O)C(=O)N[C@@H](CC(C)C)C(=O)N[C@@H](CCCCN)C(N)=O)C(C)C [Ac-SSL, Ac-SSLSVND-GGG-LDLKLDLKLDLK-CONH2] (Ac-SSLSVNDGGGLDLKLDLKLDLK-NH2) |  |  |  |  |  |  |  |  |  |  |
| 2.88 | 91.2 | 47.82 | increased with concentration increments | CC(=O)N[C@@H](CCCCN)C(=O)N[C@@H](CC(C)C)C(=O)N1CCC[C@H]1C(=O)NCC(=O)N[C@@H](Cc1c[nH]c2ccccc12)C(=O)N[C@@H](CO)C(=O)NCC(=O)NCC(=O)NCC(=O)NCC(=O)N[C@@H](CC(C)C)C(=O)N[C@@H](CC(=O)O)C(=O)N[C@@H](CC(C)C)C(=O)N[C@@H](CCCCN)C(=O)N[C@@H](CC(C)C)C(=O)N[C@@H](CC(=O)O)C(=O)N[C@@H](CC(C)C)C(=O)N[C@@H](CCCCN)C(=O)N[C@@H](CC(C)C)C(=O)N[C@@H](CC(=O)O)C(=O)N[C@@H](CC(C)C)C(=O)N[C@@H](CCCCN)C(N)=O [Ac-KLP, Ac-KLPGWSG-GGG-LDLKLDLKLDLK-CONH2] (Ac-KLPGWSGGGGLDLKLDLKLDLK-NH2) |  |  |  | above 50% | significant increments of differentiated neurons |  |  |  |  |  |
